Experimental data taken from patent publication US10308649B2, “Compounds and methods to suppress autoimmune response” (Oregon State University, priority 2014, dated 2019).

Assays:
[1] = system: NOD mice; test: Flow cytometry of leukocyte composition of pancreas, PLN and spleen of NOD mice; type: in vivo, mouse
Protocol: The leukocyte composition of the pancreas and draining lymph nodes was analyzed at 12, 15, and 20 weeks of age using flow cytometry. Mice were sacrificed at 12, 15, and 20 weeks of age, draining lymph nodes and pancreata were excised, and single cell suspensions were prepared for analysis with flow cytometry. Fc receptors were blocked with rat immunoglobulin G (IgG) acquired from Jackson ImmunoResearch. The cells were stained with the following antibodies: CD4 (RM4, eBioscience), CD8 (53-6.7, eBioscience), CD19 (1D3, eBioscience), CD45 (30-F11, BD Biosciences), Foxp3 (FJK-16s, eBioscience), Nrp1 (3DS304M, eBioscience), CD25 (PC61.5, eBioscience), RORγt (AFKJS-9, eBioscience). For intracellular staining, cells were fixed and permeabilized using a Foxp3 Fixation/Permeabilization buffer acquired from eBioscience (San Diego, Calif.). Data were acquired using a FC-500 flow cytometer (BECKMAN COULTER) and compensated and analyzed using FLOWJO software. Fluorescence minus one (FMO) controls were used for setting gates for analysis.
FIGS. 3a-3f illustrate results comparing the leukocyte composition of the vehicle treated NOD mice to the ARHL1 treated NOD mice from FIG. 2b. The leukocyte composition of the vehicle treated NOD mice to the ARHL1 treated NOD mice was analyzed at 12 weeks of age. Student's t-test was used for analysis. Sample size of n=5-9 mice per group was used. A single asterisk (*) signifies p≤0.05; a double asterisk (**) signifies p≤0.01; a triple asterisk (***) signifies p≤0.001.
FIGS. 4a-4t illustrate results comparing leukocyte composition of draining lymph nodes in vehicle treated, AHRL1 treated, and TCDD treated NOD mice at 12, 15, and 20 weeks of age. Seven-week-old NOD mice were treated with vehicle, AHRL1, or TCDD as described with reference to FIG. 2b. At 12 weeks of age, 15 weeks of age, and 20 weeks of age, the draining lymph nodes were excised from the mice and stained with CD4 antibodies and Foxp3 antibodies. The results were analyzed by flow cytometry and plotted as average +/−standard deviation (s.d.). A sample size of n=5-9 mice per group was used. A single asterisk (*) signifies p≤0.05.

[2] = system: NOD.Foxp3DTR mice; test: Flow cytometry of PLN cells of NOD.Foxp3DTR mice; type: in vivo, mouse
Protocol: FIG. 6a illustrates details of the mouse model used to analyze the therapeutic effects and mechanisms by which AhR activation alters T cell differentiation. […] Arrows 152 illustrate the NOD.Foxp3^DTR mice were orally dosed with 60 mg/kg AHRL1 on days −1, 1, 3, 5, and 7 relative to DT treatment on day 0. The carrier for AHRL1 was a 30% DMSO, 20% CREMAPHOR, 50% PECEOL solution. Data was also collected from NOD.Foxp3^DTR mice treated with TCDD on day −1 relative to DT treatment on day 0. […] Non-obese diabetic Foxp3 wild type (NOD.Foxp3^WT) mice treated with DT and NOD.Foxp3^DTR mice treated with vehicle were used as controls. The vehicle was the carrier for AHRL1. Arrow 158 illustrates sacrifice of the mice on day 9.
The leukocyte composition of the pancreas and draining lymph nodes was analyzed using flow cytometry. Draining lymph nodes and pancreata were excised from the sacrificed mice, and single cell suspensions were prepared for analysis with flow cytometry. […] Data were acquired using an FC-500 flow cytometer (BECKMAN COULTER) and compensated and analyzed using FLOWJO software. […]

[3] = target: T1, AhR (Mus musculus, UniProt P30561); test: Competitive inhibition of [3H] 3-MC binding to AhR
T1 sequence (P30561 10-848): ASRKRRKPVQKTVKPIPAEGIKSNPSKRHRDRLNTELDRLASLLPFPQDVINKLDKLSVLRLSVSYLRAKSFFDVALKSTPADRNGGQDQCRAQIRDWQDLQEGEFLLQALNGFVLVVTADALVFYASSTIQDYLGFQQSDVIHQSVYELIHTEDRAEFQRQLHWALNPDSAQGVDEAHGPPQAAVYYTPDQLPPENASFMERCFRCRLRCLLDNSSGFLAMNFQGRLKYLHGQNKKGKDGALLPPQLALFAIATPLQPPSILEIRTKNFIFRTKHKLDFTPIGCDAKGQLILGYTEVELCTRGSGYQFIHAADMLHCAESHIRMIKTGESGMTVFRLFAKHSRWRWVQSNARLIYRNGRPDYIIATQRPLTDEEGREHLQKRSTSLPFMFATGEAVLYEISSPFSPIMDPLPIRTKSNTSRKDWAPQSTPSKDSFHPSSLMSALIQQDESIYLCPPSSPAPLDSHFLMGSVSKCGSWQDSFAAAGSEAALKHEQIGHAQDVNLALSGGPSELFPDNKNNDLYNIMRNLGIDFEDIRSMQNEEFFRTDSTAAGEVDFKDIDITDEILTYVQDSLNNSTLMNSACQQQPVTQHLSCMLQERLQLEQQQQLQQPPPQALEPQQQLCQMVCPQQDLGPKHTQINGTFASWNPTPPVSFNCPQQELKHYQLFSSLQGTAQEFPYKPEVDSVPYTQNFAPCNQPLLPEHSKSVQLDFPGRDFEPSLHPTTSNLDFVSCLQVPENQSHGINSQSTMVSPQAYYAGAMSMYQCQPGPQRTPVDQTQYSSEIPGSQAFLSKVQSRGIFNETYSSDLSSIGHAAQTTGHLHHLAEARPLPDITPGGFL
Text: 3-MC binding to AhR. […] 3-methylcholanthrene (3-MC) to AhR.

[4] = system: B6D2F1 host mice; test: 15-day GVHD model in B6D2F1 host mice; type: in vivo, mouse
Protocol: GVHD was established using donor cells obtained from wild type or AhR-deficient mice. B6D2F1 host mice were injected with wild type (WT) or AhR^−/− splenocytes to initiate the graft versus host (GVH) response. Due to a limited number of AhR-deficient mice available, whole splenocytes rather than purified T cells were used to initiate the GVH response. Host mice were given AHRL1 or vehicle treatments daily for 15 days. The vehicle consisted of a mixture of 6.7% anisole and peanut oil. A single loading dose of 10 mg/kg AHRL1 was given at the time of donor cell injection and a maintenance dose of 2 mg/kg AHRL1 was given every day thereafter until termination of the experiment on day 15.
The progression of GVHD in the host mice was monitored and a clinical GVHD pathology score was calculated. At termination of the 15-day study, each animal was evaluated and given a clinical GVHD pathology score based on five criteria: changes in weight, posture, activity, fur texture, and mortality. The clinical GVHD pathology score was assessed on a scale of 0 to 3, where 0 was normal, 1 was moderate morbidity, 2 was severe morbidity, and 3 was death.
In a separate study, the effect of AHRL1 on donor cell engraftment was examined and directly compared with the effect of TCDD. B6D2F1 host mice in groups of 6 were injected with splenocytes from C57Bl/6 mice to initiate the GVH response, and treated with AHRL1 or vehicle daily for 15 days. The vehicle consisted of a mixture of 6.7% anisole and peanut oil. A single loading dose of 10 mg/kg AHRL1 was given at the time of donor cell injection and a maintenance dose of 2 mg/kg AHRL1 was given every day thereafter until termination of the experiment on day 15. 15 μg/kg of TCDD was given to an additional group of 6 mice on day 0 as a positive control. […] The donor cells were identified in the host spleen as the H-2D^d negative population.

[5] = in humans; cited from earlier work

## Clc1cc2c(cc1Cl)Oc1cc(Cl)c(Cl)cc1O2 [TCDD, 2,3,7,8-tetrachlorodibenzo-p-dioxin]
[1]; NOD.Foxp3WT mice, 20 weeks of age
  percentage of CD4+Foxp3- cells that were Nrp1+: decrease
[1]; PLN, 12 weeks of age
  percentage of Foxp3+ cells gated on CD4+ cells: higher percentage
[1]; PLN, 15 weeks of age
  percentage of Foxp3+ cells gated on CD4+ cells: higher percentage
[1]; PLN, 20 weeks of age
  percentage of Foxp3+ cells gated on CD4+ cells: higher percentage
[1]; spleen, 12 weeks of age, vs vehicle
  percentage of Foxp3+ cells gated on CD4+ cells: higher percentage
[1]; spleen, 15 weeks of age, vs vehicle
  percentage of Foxp3+ cells gated on CD4+ cells: higher percentage
[1]; spleen, 20 weeks of age, vs vehicle
  percentage of Foxp3+ cells gated on CD4+ cells: higher percentage
[2]; DT treated NOD.Foxp3DTR mice
  percentage of CD4+Foxp3- cells that were Nrp1+: decreased
[2]; TCDD treated mice
  percentage of CD4+Foxp3- cells that were RORγt+: 0.42%
[3]
  IC50: 4.7 nM
[4]; day 15, AHRL1 10 mg/kg then 2 mg/kg daily, TCDD 15 μg/kg day 0
  total number of donor CD4+ and CD8+ T cells engrafted in the host spleen: reduced total number
[4]; host spleen, day 15
  percentage and number of activated donor CD8+ T cells expressing a CTL phenotype (CD8+CD44hiCD45RBlow): reduce the percentage and number
[4]; host spleen, day 15, vs vehicle
  percentage and number of host B cells (CD19+ cells): increased percentage and number
[5]
  half-life: approximately seven
